{
  "source": "ChEMBL document CHEMBL4428068",
  "about": "“Allosteric Modulation of Phosphatase Activity May Redefine Therapeutic Value” (J Med Chem, 2016)",
  "target": "T1, Tyrosine-protein phosphatase non-receptor type 11 (Homo sapiens, UniProt Q06124)",
  "T1 sequence (Q06124 whole entry)": "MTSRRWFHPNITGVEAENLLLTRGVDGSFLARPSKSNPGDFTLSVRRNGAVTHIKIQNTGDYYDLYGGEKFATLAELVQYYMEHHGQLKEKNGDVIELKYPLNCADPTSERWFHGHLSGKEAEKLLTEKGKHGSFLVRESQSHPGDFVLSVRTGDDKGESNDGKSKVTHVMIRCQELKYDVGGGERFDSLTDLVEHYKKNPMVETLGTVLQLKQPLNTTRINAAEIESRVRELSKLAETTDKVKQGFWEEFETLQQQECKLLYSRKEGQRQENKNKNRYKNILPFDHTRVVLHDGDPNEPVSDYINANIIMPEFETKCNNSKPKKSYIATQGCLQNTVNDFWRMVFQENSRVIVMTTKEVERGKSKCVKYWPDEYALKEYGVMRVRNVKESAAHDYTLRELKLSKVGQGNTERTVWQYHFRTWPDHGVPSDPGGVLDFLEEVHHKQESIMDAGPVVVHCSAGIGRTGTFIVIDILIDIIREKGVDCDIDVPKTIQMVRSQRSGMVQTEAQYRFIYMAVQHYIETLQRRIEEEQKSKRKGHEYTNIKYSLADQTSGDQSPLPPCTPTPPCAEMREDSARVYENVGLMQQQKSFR",
  "assay": "Negative allosteric modulator activity at SHP2 (unknown origin)",
  "data": [
    {"smiles": "C[C@@H]1CN(c2ncc(-c3cccc(Cl)c3Cl)c(N)n2)C[C@H](C)N1", "values": [
      {"measurement": "IC50", "result": 12, "unit": "µM"}
    ]}
  ]
}
